Experimental findings from ChEMBL document CHEMBL6115005, “New phenylpiperazine-thiazolidine-2,4-dione hybrids targeting MAO inhibition: Synthesis, biological evaluation, kinetic study and in silico insights” (Bioorg Med Chem, 2025) are described below.

pIC50, pKi: −log10 of the molar value.

The target of assay [1] is T1, Amine oxidase [flavin-containing] A (Homo sapiens, UniProt P21397).
T1 sequence (P21397 whole entry): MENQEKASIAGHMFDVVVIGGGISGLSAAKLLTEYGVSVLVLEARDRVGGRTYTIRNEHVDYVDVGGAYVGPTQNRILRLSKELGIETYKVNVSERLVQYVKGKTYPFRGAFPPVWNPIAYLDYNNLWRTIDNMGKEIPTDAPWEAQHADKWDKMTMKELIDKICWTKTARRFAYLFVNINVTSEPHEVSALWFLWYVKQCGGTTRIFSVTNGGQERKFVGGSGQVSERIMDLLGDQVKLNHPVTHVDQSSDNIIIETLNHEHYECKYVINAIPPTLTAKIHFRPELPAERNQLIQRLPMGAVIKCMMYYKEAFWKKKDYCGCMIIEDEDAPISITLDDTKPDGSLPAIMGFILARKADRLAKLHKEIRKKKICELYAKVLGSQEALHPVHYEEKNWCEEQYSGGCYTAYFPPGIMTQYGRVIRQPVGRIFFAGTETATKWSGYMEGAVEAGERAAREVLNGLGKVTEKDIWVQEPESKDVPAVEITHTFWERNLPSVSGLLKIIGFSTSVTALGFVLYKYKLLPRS
Kind of assay: Inhibition of human MAO-A using kynuramine as substrate by fluorometric assay.

Assay [2] has as its target T2, Amine oxidase [flavin-containing] B (Homo sapiens, UniProt P27338).
T2 sequence (P27338 whole entry): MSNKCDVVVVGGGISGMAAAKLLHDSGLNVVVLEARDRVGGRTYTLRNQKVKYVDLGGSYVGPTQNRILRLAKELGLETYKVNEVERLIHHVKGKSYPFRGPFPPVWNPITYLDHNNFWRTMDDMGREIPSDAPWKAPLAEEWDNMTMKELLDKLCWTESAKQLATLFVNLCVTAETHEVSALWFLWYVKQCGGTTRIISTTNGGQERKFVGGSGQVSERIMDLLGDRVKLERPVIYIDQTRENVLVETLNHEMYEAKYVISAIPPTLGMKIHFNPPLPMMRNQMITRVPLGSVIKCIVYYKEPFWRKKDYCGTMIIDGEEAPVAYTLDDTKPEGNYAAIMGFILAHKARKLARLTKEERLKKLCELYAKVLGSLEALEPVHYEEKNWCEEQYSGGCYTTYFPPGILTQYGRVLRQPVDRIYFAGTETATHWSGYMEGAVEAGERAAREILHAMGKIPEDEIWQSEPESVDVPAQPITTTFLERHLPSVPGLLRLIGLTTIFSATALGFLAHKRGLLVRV
Nature of the assay: Inhibition of human MAO-B using benzylamine as substrate by fluorometric assay.

The species entered for assay [3] is Homo sapiens. Nature of the assay: Selectivity index, ratio of IC50 for inhibition of human MAO-B using benzylamine as substrate to IC50 for inhibition of human MAO-A using kynuramine as substrate.
The target of assay [4] is T1, Amine oxidase [flavin-containing] A. Kind of assay: Inhibition of MAO-A (unknown origin).
For assay [5], the target named is T2, Amine oxidase [flavin-containing] B. Kind of assay: Inhibition of MAO-B (unknown origin).
The test system of assay [6] is PC-12. Kind of assay: Neuroprotective activity against rotenone-induced cytotoxicity in rat PC12 cells assessed as increase in cell viability at 16 microg/ml by MTT assay. It counts as functional. The conditions noted are these: dose 16 µg/ml. On the technique in general: Formazan colour is commonly taken as a measure of viable cells.
The target of assay [7] is T1, Amine oxidase [flavin-containing] A. Nature of the assay: Mixed type inhibition of human MAO-A by lineweaver-burk plot analysis.
Assay [8] relates to SH-SY5Y. Kind of assay: Cytotoxicity against human SH-SY5Y cells by MTT assay. The assay is classed as functional, cell-based.

For `O=C1NC(=O)/C(=C/c2ccc(N3CCN(c4ccccc4)CC3)cc2)S1`, the negative logarithm of the IC50 (pIC50) is 6.39 in assay [1] and 5.17 in assay [2]. In assay [3], the Ratio IC50 was 16.6.
Regarding `C=CCN1C(=O)S/C(=C\c2ccc(N3CCN(c4ccccc4OCC)CC3)cc2)C1=O`, the figures for the pIC50 in assay [1] and in assay [2] were 6.09 and 5.25, respectively. Also, in assay [3], the Ratio IC50 was determined as 6.87.
For `C#CCN1C(=O)S/C(=C\c2ccc(N3CCN(c4ccccc4OCC)CC3)cc2)C1=O`, the values for the negative-log IC50 (pIC50) in assay [1] and in assay [2] were 6.66 and 5.76, respectively. In assay [3], the Ratio IC50 stood at 7.96.
As for `C#CCN1C(=O)S/C(=C\c2ccc(N3CCN(C4CCCCC4)CC3)cc2)C1=O`, the negative logarithm of the IC50 (pIC50) in assay [1] was 5.84; in assay [2], 6.15. In addition, the Ratio IC50 in assay [3] is 0.49.
`C=CCN1C(=O)S/C(=C\c2ccc(N3CCN(c4ccc(F)cc4)CC3)cc2)C1=O`: the figures for the negative logarithm of the IC50 (pIC50) in assay [1] and in assay [2] were 5.83 and 6.48, respectively. Besides, the Ratio IC50 in assay [3] was determined as 0.22.
`C#CCN1C(=O)S/C(=C\c2ccc(N3CCN(c4ccc(F)cc4)CC3)cc2)C1=O`: the values for the pIC50 in assay [1] and in assay [2] were 6.42 and 5.87, respectively. Also, the Ratio IC50 in assay [3] is 3.57.
Turning to `CCOc1ccccc1N1CCN(c2ccc(/C=C3\SC(=O)N(Cc4ccccc4)C3=O)cc2)CC1`, the values for the pIC50 in assay [1] and in assay [2] were 6.30 and 5.98, respectively. Moreover, the Ratio IC50 in assay [3] came to 2.11.
On the same counts, the results for `O=C1S/C(=C\c2ccc(N3CCN(c4ccccc4)CC3)cc2)C(=O)N1Cc1ccccc1` are 6.71, 6.19 and 3.36.
With `C=CCN1C(=O)S/C(=C\c2ccc(N3CCN(C4CCCCC4)CC3)cc2)C1=O`, the negative logarithm of the IC50 (pIC50) in assay [1] was 5.76; in assay [2], less than 5.00. The Ratio IC50 in assay [3] is greater than 5.79.
Take `O=C1NC(=O)/C(=C/c2ccc(N3CCN(c4ccc(F)cc4)CC3)cc2)S1`: the values for the negative logarithm of the IC50 (pIC50) in assay [1] and in assay [2] were 5.60 and 5.15, respectively. The Ratio IC50 in assay [3] turned out to be 2.83.
Take `OCc1ccc(N2CCN(c3cccc(Cl)c3)CC2)cc1`: the pIC50 in assay [4] was 7.05.
As for `O=C1S/C(=C\c2ccc(N3CCN(C4CCCCC4)CC3)cc2)C(=O)N1Cc1ccccc1`, the pIC50 in assay [1] is 6.29; in assay [2], 5.56. In addition, in assay [3], the Ratio IC50 was determined as 5.28.
As for `CCOc1ccccc1N1CCN(c2ccc(/C=C3\SC(=O)NC3=O)cc2)CC1`, the negative logarithm of the IC50 (pIC50) was 5.87 in assay [1] and 5.56 in assay [2]. For the same compound, in assay [3], the Ratio IC50 was 2.
Turning to `CC(C)(C)c1ccc(S(=O)(=O)c2ccc(N3CCN(C(c4ccccc4)c4ccccc4)CC3)cc2)cc1`, the pIC50 in assay [5] is 6.21.
`C#CCN[C@@H]1CCc2ccccc21` [RASAGILINE]: the Activity in assay [6] was determined as 69.75%.
As for `O=C1S/C(=C\c2ccc(N3CCN(c4ccc(F)cc4)CC3)cc2)C(=O)N1Cc1ccccc1`, the pIC50 in assay [1] is 6.73; in assay [2] it was 6.32; in assay [8], 4.02. Besides, the pKi in assay [7] was 8.47. Further, in assay [6], the Activity was found to be 73.16%.
For `CN1CCN(c2ccc(/C=N/Nc3nc(-c4ccc([N+](=O)[O-])cc4)cs3)cc2)CC1`, the negative logarithm of the IC50 (pIC50) in assay [4] is 7.24.
With `O=C1NC(=O)/C(=C/c2ccc(N3CCN(C4CCCCC4)CC3)cc2)S1`, the negative-log IC50 (pIC50) in assay [1] is 5.50; in assay [2], 5.05. Also, the Ratio IC50 in assay [3] turned out to be 2.85.
For `C#CCN1C(=O)S/C(=C\c2ccc(N3CCN(c4ccccc4)CC3)cc2)C1=O`, the values for the negative-log IC50 (pIC50) in assay [1] and in assay [2] were 5.83 and 5.52, respectively. In addition, in assay [3], the Ratio IC50 is 2.02.
As for `COc1ccc(N2CCN(Cc3nnc(SCC(=O)c4ccc(Cl)cc4)n3C)CC2)cc1`, the pIC50 in assay [4] and in assay [5] was 7.15 in each case.
As to `C=CCN1C(=O)S/C(=C\c2ccc(N3CCN(c4ccccc4)CC3)cc2)C1=O`, the pIC50 was 5.24 in assay [1] and less than 5.00 in assay [2]. Further, in assay [3], the Ratio IC50 is greater than 2.66.

For orientation: pIC50 means the negative decadic logarithm of the IC50, by convention in mol/L. The low end stands for a high IC50, the high end for a low IC50. In general, pKi refers to −log10 of the Ki, conventionally taken in molar units. Read a high pKi as a small Ki.
